Assay results as given in US20140330022A1, “COLLATERAL BLOOD CIRCULATION DEVELOPMENT PROMOTER” (KOWA COMPANY, LTD., priority 2012, published 2014).
Blank lines part the entries; values can stand above or below the molecule they belong to.

Experiments:
[1] = test system: lower-extremity ischemic mouse; conditions: long-term administration (Non-Patent Document 7); cited from earlier work
[2] = test system: human aortic endothelial cells (HAEC); conditions: HAEC in vitro; eNOS phosphorylation via cAMP/PKA and PI3K/Akt, increased NO production (Non-Patent Document 6); cited from earlier work
[3] = Pharmacokinetics study in the rat, single oral dose; type: in vivo; conditions: non-fasting, serum, n=3
Experimental: The concentration of the Compound 1 in the serum was detected with a high-performance liquid chromatography system attached with a fluorescence detector. The maximum plasma concentration (Cmax) and time to the maximum plasma concentration (Tmax) were determined from the measurement of the drug concentration in the serum, half-life (T1/2), and AUC. The time curve was computed by a least squares method and a trapezoidal method, respectively.

[4] = test system: human aortic endothelial cells (HAEC); assay: Proliferative activity of HAEC (WST-8 assay); type: cell-based; conditions: 1 μM and 3 μM, 48 hours incubation, vs solvent control, n=3 (FIG. 1)
Experimental: (§1) The Compound 1 was produced according to the method described in WO97/012869 and dissolved in dimethyl sulfoxide (solvent). As for cells used in the experiment, human aortic endothelial cells (HAEC (Lonza Group Ltd.)) and normal human umbilical vein endothelial cells (HUVEC; American Type Culture Collection) were used.
HAEC were cultured using an endothelial cell growth medium (EGM-2 bullet kit; Lonza) containing 10% fetal bovine serum (FBS). The proliferative activity of HAEC was assessed by a WST-8 assay using a Cell Counting Kit (Dojindo Laboratories). In a 96-well plate, HAEC were seeded at a concentration of 5000 cells per well, and incubated for 24 hours. Subsequently, the medium in each well was exchanged to 100 μL of fresh culture medium containing various concentrations of the Compound 1 or solvent alone. After the 48 hours of subsequent incubation, 10 μL of WST-8 reagent was added to each well. The plate was incubated another 4 hours, and then the absorbance at 450 nm was measured with an absorbance plate reader.

[5] = test system: rat femoral artery occlusion model; assay: Luminal area of intramuscular artery in gastrocnemius muscle, rat femoral artery ligation model (α-SMA staining); type: in vivo; conditions: 30 mg/kg oral twice daily for 27 days, mean±standard error, n=16, ligated control 3315±416, sham 14642±1062, P<0.05
Experimental: (§2) The Compound 1 was produced according to the method described in WO97/012869 and was used by dissolving in dimethyl sulfoxide or suspending in 1% (W/W) of hydroxypropyl methyl cellulose aqueous solution. As for animals, 7 to 9 week-old Sprague-Dawley (Slc:SD) male rats were used. As for anesthesia for operation, pentobarbital.sodium was intraperitoneally administered at a dose of 50 mg/kg.
(§3) Bilateral femoral arteries were exposed and the arteries were ligated using a suture under anesthesia. For histological analysis, the Compound 1 or base alone was orally administered twice daily for 27 days starting on the day of operation. On Day 28, the left gastrocnemius muscle was extirpated and frozen in a Tissue-Tek O.C.T. compound (Sakura Finetech Japan Co., Ltd.). Tissue sections at a thickness of 10 μm were prepared by slicing the frozen tissue sample with a freezing microtome, and dried in an air and fixed with acetone. […] The positive staining with α-SMA was identified by an examination using a light microscope, and the luminal area of intramuscular artery was quantified by image analysis (Win ROOF; Mitani Co., Ltd.). The blood flow volume on Day 28 in the hindlimb muscle in this model was determined by measuring at two points, in other words before and after exercise, using Dye-Trak VII+ microspheres (Triton Technology, Inc.).

[6] = test system: rat femoral artery occlusion model; assay: Hindlimb muscle blood flow in rat hindlimb ischemia model by ligation of femoral artery (colored microspheres); type: in vivo; conditions: 30 mg/kg oral twice daily for 27 days
Experimental: as §2, §3
In particular detail, initially a pentobarbital.sodium solution was intraperitoneally administered to the rat at a dose of 50 mg/kg to anesthetize. […] Wave profile of blood pressure that is characteristic to the left ventricular was detected to confirm whether the catheter has reached to the left ventricular. The temporal pulse pressure and average blood pressure were measured with a sphygmomanometer via the blood pressure transducer. […]

[7] = test system: normal human umbilical vein endothelial cells (HUVEC); assay: HUVEC tube formation on Matrigel matrix; type: cell-based
Experimental: as §1
HUVEC were cultured using an endothelial cell growth medium (Endothelial Cell Growth Medium: Cell Applications) containing 10% FBS. In a 96-well plate coated with Matrigel matrix, HUVEC were seeded at a concentration of 1.5×10^4 cells per well, and incubated in a 200 μL of culture medium containing various concentrations of the […] or solvent alone for 18 hours. After that, total tube length in a field (Total tube length) was calculated by image analysis using a light microscope (E-400; Nikon Corp.).

[8] = test system: excised rat femoral artery contracted with KCl; assay: Vasodilation of excised rat femoral artery in Magnus tube; conditions: 0.1 μmol/L to 30 μmol/L, in vitro, n=3 (FIG. 9)
Experimental: The femoral artery vessel (3 mm in width) excised from the rat was placed to a Magnus tube filled with a Krebs-Henseleit solution maintained at 37° C., to which a mixed gas of 95% O2 and 5% CO2 was continuously injected by reference to the method by Abiru et al. (Abiru T, et al., Eur J. Pharmacol. 1995; 281:9-15.). The isometric tension of the vessel was measured with a tension transducer, and the result was recorded with a thermal printer. The vessel was adjusted to a resting tension of 0.75 g. The vessel was contracted by 60 mmol/L (rats) of potassium chloride, and then the Compound 1 or a base was continuously injected to the Magnus tube. At the end of each experiment, […] of papaverine was added in order to determine the maximum relaxation.

[9] = Sprague-Dawley (Slc:SD), single oral 3 mg/kg
[10] = Sprague-Dawley (Slc:SD), single oral 10 mg/kg
[11] = Sprague-Dawley (Slc:SD), single oral 100 mg/kg
[12] = Sprague-Dawley, single oral 10 mg/kg
[13] = Sprague-Dawley, single oral 30 mg/kg

SMILES: O=C1CCc2cc(OCCCCc3nnnn3C3CCCCC3)ccc2N1 [cilostazol]
- vascular density in lower-extremity muscles [1]: elevates
- tubulogenesis of endothelial cells [2]: promotes tubulogenesis of endothelial cells

- AUC(0-inf) [3, 9]: 1.33 µM·h
- AUC(0-t) [3, 9]: 0.83 µM·h
- Cmax [3, 9]: 300 ± 60 nM
- Tmax [3, 9]: 1 h
- half-life [3, 9]: 2.64 h
- AUC(0-t) [3, 10]: 2.38 µM·h
- Cmax [3, 10]: 830 ± 140 nM
- Cmax ([3]; Sprague-Dawley (Slc:SD), single oral 30 mg/kg): 4730 ± 280 nM
- AUC(0-inf) [3, 11]: 48.2 µM·h
- AUC(0-t) [3, 11]: 47.1 µM·h
- Tmax [3, 11]: 1 h
- half-life [3, 11]: 2.19 h
- AUC(0-inf) [3, 12]: 2.55 µM·h
- Tmax [3, 12]: 1 h
- half-life [3, 12]: 2 h
- AUC(0-inf) [3, 13]: 14.8 µM·h
- AUC(0-t) [3, 13]: 14.1 µM·h
- Tmax [3, 13]: 2 h
- half-life [3, 13]: 1.61 h
- Cmax ([3]; Sprague-Dawley, single oral 100 mg/kg): 9760 ± 1440 nM
SMILES: O=C(NCCCOc1ccc2[nH]c(=O)ccc2c1)N(C1CC1)[C@@H]1CCCC[C@H]1O [Compound 1, (−)-6-[3-[3-cyclopropyl-3-[(1R,2R)-2-hydroxycyclohexyl]ureido]propoxy]-2(1H)-quinolinone]
- effect on the proliferative activity of HAEC [4]: no effect
- luminal area of the main artery in the gastrocnemius muscle [5]: 7100±824 μm^2
- blood flow in the gastrocnemius muscle after exercise ([6]; Day 28, after exercise, mean±standard error, n=20, control 0.561±0.034, P<0.001): 0.818 ± 0.058 mL/min/g
- blood flow in anterior tibialis muscle after exercise ([6]; Day 28, after exercise, mean±standard error, n=20, control 0.697±0.039, P<0.001): 0.992 ± 0.060 mL/min/g
- hindlimb muscle blood flow before exercise ([6]; Day 28, before exercise (at rest), gastrocnemius and anterior tibialis): no change
- angiogenesis in photographs of HUVEC tube formation ([7]; 0.01, 0.1, 1, 10, 100 μM (FIG. 2)): no angiogenesis could be confirmed
- HUVEC tube formation, ratio of Total tube length with respect to the control ([7]; 0.01 to 100 μM, 18 hours, n=2 (FIG. 3)): no significant difference with respect to the control
- angiogenic activity via direct action to endothelial cells ([7]; conclusion from HAEC proliferation and HUVEC tube formation): does not have an angiogenic activity
- vasodilating effect on ring specimen of excised rat femoral artery [8]: dose-dependent vasodilating effect
